In paper PMC8347512, “Synthesis and Biological Assessment of 4,1-Benzothiazepines with Neuroprotective Activity on the Ca^2+ Overload for the Treatment of Neurodegenerative Diseases and Stroke” (Molecules, 2021):
Read-outs that look alike come from different tables or passages of the source.

Experiments:
[1] = Solubility as observed during testing; type: physicochemical
SH-SY5Y cells [2] = assay: Per se toxicity, MTT reduction, SH-SY5Y cells; type: cell-based
Description: (§1) The neuroblastoma SH-SY5Y cell line was obtained from the American Type Culture Collection (ATCC-CRL-2266), maintained and cultured in a 1:1 mixture of MEM and F12 media with 10% of fetal bovine serum (FBS), according to procedures previously described. For fluorescence-based [Ca^2+]c measurements, SH-SY5Y cells were seeded in clear-bottomed, 96-well black plates at a density of 40,000 cells/well. For viability assays, SH-SY5Y cells were seeded in 48-well plates at a density of 70,000 cells/well following the procedure recently reported. Rat cortical embryonic neurons were prepared from 19-day-old embryos directly seeded in the plate well treated with poly-D-lysine in neurobasal medium (Gibco 21103, Madrid, Spain) supplemented with 1% of L-glutamine (Sigma, G6392), 0.5% of penicillin/streptomycin and 0.1% of gentamincine. In fluorescence-based [Ca^2+]c measurement, neurons were seed at clear-bottomed, 96-well black plates at a density of 30,000 cells/well. For viability assays, the rat cortical neurons were also seeded in 48-well plates at a density of 40,000 cells/well. All the biological assays were conducted under sterile conditions.
The per se toxicity of the new synthetized compounds was assessed in both cell cultures by the method of MTT reduction. […] The viability of cultures was measured 20 h later, following a procedure recently described. […]

rat cortical neurons [3] = assay: Neuroprotection against glutamate 50 μM, MTT, rat cortical neurons; type: cell-based; details: compounds 10 μM
Description: as §1
(§2) The effect of compounds on the SH-SY5Y cells and rat cortical neurons viability compromised of different toxics was also evaluated by method of MTT reduction. Twenty-four hours after seeding, SH-SY5Y cells were preincubated with compounds at the concentration of 10 μM for 24 h. Afterwards, MEM/F12 medium was replaced by one fresh with 1% FBS, compounds at the same concentration, and rotenone/oligomycin A administered to media at the concentration of 30/10 μM, respectively. The cultures’ viability was measured 20 h later, following the MTT procedure recently described. As reference neuroprotective compound, melatonin 10 nM was selected. In the case of the rat cortical neurons, 7 days after seeding in 48-well plates, neurons were preincubated adding the compounds at a final concentration of 10 μM for 24 h. Then, toxic stimuli of 50 µM of glutamate was added to the wells. After 20 h, cell viability was measured by the MTT procedure. Here, the reference protective compound used was memantine (30 nM).

NMDA receptors = assay: Blockade of NMDA-evoked cytosolic Ca2+ elevation (Fluo-4/AM) in rat cortical neurons; type: cell-based; details: for IC50: rat cortical embryonic neurons, NMDA 10 μM, compounds 1 to 30 μM, read-out: IC50, NMDA-evoked [Ca2+]c elevation
Description: as §1
To assess the blocking effect of compounds on the VGCC, we used SH-SY5Y cells charged with the Ca^2+-sensitive fluorescent dye Fluo-4/AM at 10 μM in Krebs-HEPES buffer, following a protocol recently described. Compounds were incubated at the desired concentrations (1, 3, 10, and 30 μM). The Ca^2+ entry was favored by addition of K^+ 70 mM to the extracellular medium. […] Rat cortical neurons were charged with Fluo-4/AM at 3 μM in Krebs-HEPES buffer and compounds incubated at same concentrations than before. To stimulate Ca^2+ entry through the NMDA-sensitive glutamate receptors, NMDA was applied at 10 μM. In both cases, fluorescence oscillations as result of the [Ca^2+]c increases were real-time monitored in a multi-well fluorescence plate reader (FluoStar Optima, BMG, Germany), with excitation and emission wavelengths of 485 and 520 nm, respectively. Data were calculated as fluorescence increase (ΔF), according to the formula: ΔF=Fx−Fo /Fmax−Fmin where Fx is the maximum fluorescence obtained after Ca^2+ entry stimulation, F0 is the averaged fluorescence before, Fmax is the maximum fluorescence of the well obtained by treating cells with 5% Triton X-100, and the Fmin is the minimum fluorescence of well obtained by adding MnCl2 1 M to the previously Triton-lysed cells. The ΔF data were normalized respect to the control (ΔFc).

SH-SY5Y cells [4] = assay: Neuroprotection against rotenone/oligomycin A (R/O), MTT, SH-SY5Y cells; type: cell-based; details: R/O 30/10 μM, compounds 10 μM
Description: as §1, §2

VGCC = assay: Blockade of 70 mM K+-evoked cytosolic Ca2+ elevation (Fluo-4/AM) in SH-SY5Y cells; type: cell-based
Description: as §1
To assess the blocking effect of compounds on the VGCC, we used SH-SY5Y cells charged with the Ca^2+-sensitive fluorescent dye Fluo-4/AM at 10 μM in Krebs-HEPES buffer, following a protocol recently described. Compounds were incubated at the desired concentrations (1, 3, 10, and 30 μM). The Ca^2+ entry was favored by addition of K^+ 70 mM to the extracellular medium. To evaluate the blocking effect of compounds on NMDA receptors, we have followed a protocol recently reported by our research group. Rat cortical neurons were charged with Fluo-4/AM at 3 μM in Krebs-HEPES buffer and compounds incubated at same concentrations than before. To stimulate Ca^2+ entry through the NMDA-sensitive glutamate receptors, NMDA was applied at 10 μM. In both cases, fluorescence oscillations as result of the [Ca^2+]c increases were real-time monitored in a multi-well fluorescence plate reader (FluoStar Optima, BMG, Germany), with excitation and emission wavelengths of 485 and 520 nm, respectively. Data were calculated as fluorescence increase (ΔF), according to the formula: ΔF=Fx−Fo /Fmax−Fmin where Fx is the maximum fluorescence obtained after Ca^2+ entry stimulation, F0 is the averaged fluorescence before, Fmax is the maximum fluorescence of the well obtained by treating cells with 5% Triton X-100, and the Fmin is the minimum fluorescence of well obtained by adding MnCl2 1 M to the previously Triton-lysed cells. The ΔF data were normalized respect to the control (ΔFc). Data are presented as percentage of blockade (100% ΔF) at the concentration of 10 μM, or as IC50, i.e., the concentration of compound capable of halving the ΔFc (%ΔF = 50).

[5] = Blood-brain barrier permeation assay (PAMPA), porcine brain lipid; type: in vitro ADME; details: pH 7.4, threshold value of 40 nm/s, read-out: Pe, in vitro permeability (PAMPA-BBB)
Description: The parallel artificial membrane permeation assay (PAMPA) was used to predict the capacity of compounds to cross the blood–brain barrier (BBB) by passive diffusion, in a similar manner as previously described. Compounds were dissolved in 10 mM phosphate-buffered saline (PBS) buffer (pH 7.4) to the concentration of 100 µM. The filter membrane of the donor 96-well plate (Multiscreen IP sterile clear plate PDVF membrane, pore size […]) was impregnated with 4 µL of porcine brain lipid (PBL) (Avanti Polar Lipids, Inc., Alabaster, AL, USA) in dodecane (20 mg/mL), and after 5 min, 180 µL of each compound solution was added. The acceptor 96-well plate (Multiscreen, Millipore Corp. Burlington, MA, USA) was filled with 180 µL of PBS and 1% of DMSO. Finally, the donor filter plate was carefully put on the acceptor plate to form a “sandwich”, which was left undisturbed for 4 h at rt. After incubation, an UV plate reader determined the concentration of compounds in both acceptor and donor wells (150 µL/well) as the maximum absorption wavelength of each compound. Concentration of the compounds in the donor and acceptor well, and equilibrium concentration were calculated from the standard curve and expressed as the permeability (Pe), according to the following formula: logPe=logC×−ln1−drugacceptor/drugequilibrium whereC=Vdonor×Vaceptor/Vdonor+Vaceptor×Area×Time)
Results are expressed as mean ± SEM of three different experiments in duplicate.

rat cortical neurons [6] = assay: Per se toxicity, MTT reduction, rat cortical neurons; type: cell-based; details: 48 h
Description: as §1
The per se toxicity of the new synthetized compounds was assessed in both cell cultures by the method of MTT reduction. After 24 h of seeding, SH-SY5Y cells were preincubated with compounds at different concentrations (1, 3, 10, and 30 μM) for 24 h. Afterwards, MEM/F12 medium was replaced by one fresh with 1% FBS with the compounds at the same concentration. The viability of cultures was measured 20 h later, following a procedure recently described. In the case of rat cortical neurons, 7 days after seeding, compounds were added to the wells to reach a final concentration of 1, 3, 10, and 30 μM. Forty-eight hours later, neuron viability was measure by the same procedure as the one described for SH-SY5Y cells.

[7] = compounds 1 to 30 μM, Fluo-4/AM, read-out: IC50, concentration halving the 70 mM K+-evoked Ca2+ elevation

| SMILES | Solubility (observation) [1] | melting point | Effect on cell viability of SH-SY5Y cells (per se toxicity) (SH-SY5Y cells [2]; compounds at 1, 3, 10 and 30 μM) | Effect on cell viability of SH-SY5Y cells at 30 μM (SH-SY5Y cells [2]; 30 μM) | Protection against glutamate-elicited neurotoxicity (in words) (rat cortical neurons [3]) | IC50 (NMDA receptors) | Mitigation of the NMDA-elicited Ca2+ increase compared with memantine (NMDA receptors; rat cortical neurons, compounds 10 μM, memantine 10 μM) | Protection against R/O-induced oxidative stress (in words) (SH-SY5Y cells [4]) | Decrease of K+-evoked Ca2+ signaling compared with nifedipine (VGCC; compounds 10 μM, nifedipine 10 μM) | IC50 (VGCC; read-out: IC50, concentration halving the 70 mM K+-evoked Ca2+ elevation, compounds 1 to 30 μM, Fluo-4/AM) | Papp at 4 h, 100 µM [5] | IC50 (VGCC; [7]) | Effect on cell viability of rat cortical neurons at 30 μM (rat cortical neurons [6]) |
| --- | --- | --- | --- | --- | --- | --- | --- | --- | --- | --- | --- | --- | --- |
| CC(C)c1ccc(C2SCC(=O)Nc3ccc(Cl)cc32)cc1 (centres unmarked) [compound 12, 7-Chloro-5-(4′-isopropylphenyl)-3,5-dihydro-4,1-benzothiazepin-2-(1H)-one] | some solubility problems were appreciated | 240 to 243 °C | did not produce a dramatic loss of cell viability |  |  |  |  |  |  |  |  |  |  |
| CC(C)c1cccc(C2SCC(=O)Nc3ccc(Cl)cc32)c1 (centres unmarked) [compound 13, 7-Chloro-5-(3′-isopropylphenyl)-3,5-dihydro-4,1-benzothiazepin-2-(1H)-one] |  | 218 to 220 °C |  | remarkable cytotoxic profile |  |  |  |  |  |  |  |  |  |
| CC(C)c1ccccc1C1SCC(=O)Nc2ccc(N(C)C)cc21 (centres unmarked) [compound 21, 7-Dimethylamino-5-(2′-isopropylphenyl)-3,5-dihydro-4,1-benzothiazepin-2-(1H)-one] |  | 108 to 112 °C |  |  | statistically significant dissipation of the glutamate-elicited neurotoxicity | 6.2 µM | noticeable mitigation of the NMDA-elicited Ca^2+ increase, even higher than that exerted by the reference compound memantine | clear trend to protect against oxidative stress | in a similar manner or even better than the reference compound nifedipine | 5.4 µM | > 4 ×10⁻⁶ cm/s |  |  |
| COc1ccccc1C1SCC(=O)Nc2ccccc21 (centres unmarked) [compound 33, 5-(2′-Methoxyphenyl)-3,5-dihydro-4,1-benzothiazepin-2-(1H)-one] |  | 216 to 218 °C |  |  | statistically significant dissipation of the glutamate-elicited neurotoxicity | > 30 µM |  |  |  |  |  | > 30 µM | slightly reduced cell viability in a significant manner |
| O=C1CSC(c2ccccc2)c2cnccc2N1 (centres unmarked) [compound 38, 5-Phenyl-3,5-dihydropyrido[4,3-e][1,4]thiazepin-2-(1H)-one] |  | 138 to 143 °C |  |  | nicely recovered cell viability | > 30 µM |  | neuroprotective profile against oxidative stress |  |  |  | 28.5 µM |  |
